Measurements taken from patent US8173788B2, “Peptide having ability to activate cancer-related gene” (priority 2005, dated 2012).
Where no end group is shown, it is not given here.

Experiments:
Kidney mesangium cell = assay: RT-PCR gene pattern change after 7 hr peptide treatment, kidney mesangium cell; format: cell-based; details: 11-amino acid primer (full sequence), kidney mesangium sample
Procedure: (§1) In order to examine influences at a gene level of the peptide on normal cells, RT-PCR was performed by adding the peptide artificially synthesized in Example 3 to the normal cells.
(§2) (1) Normal cells were treated with the artificially synthesized peptide for 7 hr as follows:
(§3) Then, total RNA was extracted from the above-treated normal cells, untreated normal cells, and squamous-cell carcinoma cells by using an RNA extraction kit (QIAGEN). The numbers of the treated cells and the untreated cells were the same.
(§4) Reverse transcription was performed by using 30 μg of each extracted total RNA to generate cDNA pools.
(§5) PCR was conducted using each of the cDNA pools as templates.
(§6) The condition for the PCR was as follows:
(§7) (2) Each of the PCR products was applied to electrophoresis and detected by using a fluorescence label.

[1] = test system: human normal peripheral blood monocyte; assay: Influence of the artificially synthesized peptide on normal cell genes: coculture 7 hr, DNA chip system (Clontech), about 55000 human genes (Table 4); format: cell-based; details: monocytes, 7 hr
Procedure: (a) The peptide obtained in Example 3 was added to a human normal peripheral blood monocyte culture system (10 to 100 μg peptide/1×10^6 to 1×10^7 monocytes), and they were cocultured for 7 hr. Then, mRNA was extracted from the monocytes and was applied to analysis for up-regulation and down-regulation in respect to about 55000 human genes by using DNA chip system (Clontech).

[2] = test system: rejection in skin transplantation; assay: Skin transplantation test, C57Black/6N skin to back of BALB/c mouse; format: in vivo; details: 50 μg peptide/0.1 ml/mouse subcutaneously
Procedure: Then, the cellular immunity-inhibition activity of the peptide was examined from the viewpoint of activity for preventing rejection in skin transplantation.
The peptide of the present invention was administered to mice who have received skin transplantation according to the schedule shown in Table 6.

Skin fibroblast cell = assay: RT-PCR gene pattern change after 7 hr peptide treatment, skin fibroblast cell; format: cell-based; details: 11-amino acid primer (full sequence), skin fibroblast sample
Procedure: as §1, §2, §3, §4, §5, §6, §7

[3] = test system: Pancreatic epithelial cells; assay: RT-PCR gene pattern change after 7 hr peptide treatment, pancreatic epithelial cells; format: cell-based; details: pancreatic epithelial sample
Procedure: as §1, §2, §3, §4, §5, §6, §7

[4] = test system: peripheral blood monocytes; assay: Effect of the artificially synthesized peptide on total mRNA amount of peripheral blood monocytes; format: cell-based, human; set-up: reduction ratio: concentration or dose not given beside the values; details: peptide 7 hr; for post total RNA: 1 × 10^7 monocytes
Procedure: (b) The peptide obtained in Example 3 was added to a culture medium (10 to 100 μg peptide/1×10^7 monocytes) for human normal peripheral blood monocytes extracted from subjects shown in Table 5 below, and they were cocultured for 7 hr. Then, total mRNA was extracted from the monocytes, and the amount of the total mRNA was measured and compared to that of the total mRNA before the treatment with the peptide.

[5] = test system: peripheral blood monocytes; assay: RT-PCR gene pattern change after 7 hr peptide treatment, peripheral blood monocytes; format: cell-based, human
Procedure: as §1, §2, §3, §4, §5, §6, §7

Normal lymphocytes = assay: Exhaustive gene analysis of 55000 genes by DNA chip system (Codelink System); format: cell-based; details: normal lymphocytes treated vs untreated, Codelink slide 55000 genes
Procedure: Characteristics of the peptide of the present invention were clarified by conducting the analysis described below in order to examine effects of the peptide on gene expression of normal cells.
Normal lymphocytes were treated with the peptide of the present invention as in Examples 4 and 5, and the gene expression was compared to that of untreated lymphocytes by using a DNA chip system (Codelink System). In this examination, cRNA derived from bacteria was used as a positive control. Total RNA was extracted by using the QIAGEN RNA extraction kit used in Example 5. The total RNA (5 to 10 μg) was subjected to reverse transcription using an oligo-dT primer having a T7 RNA polymerase promoter region as a reverse primer to generate a pool of cDNAs complementary to the mRNAs. The condition for the reverse transcription was the same as that in Example 5. […] The amount of the cRNA was measured with a spectrophotometer to confirm at least 10 μg of the cRNA. […]
The hybridization chamber was removed and the plate was washed at 46° C. for 1 hr. The hybridization was detected with Cy5-streptavidin (1:500 dilution, at room temperature for 30 min). […]
(5) The result was analyzed by exclusive software for the Codelink analysis. […]

[6] = subject eight, healthy subject (smoker)
[7] = subject five, healthy subject (side-stream smoke)
[8] = subject four, cancer patient received chemotherapy and radiotherapy
[9] = subject one, healthy subject (side-stream smoke)
[10] = subject seven, healthy subject (smoker)
[11] = subject two, healthy subject (side-stream smoke)

QPQFGRRMESK [artificially synthesized peptide]
gene band pattern by PCR before and after peptide treatment (Kidney mesangium cell): a difference in a position having a high concentration was observed
Expression of TNF [1]: not enhanced
expression of cell growth factor such as a platelet-derived growth factor [1]: enhanced
expression of genes relating to anti-tumor immunity [1]: highly suppressed
expression of most of important factors as an operating factor for the humoral immunity mechanism [1]: enhanced
Expression of a gene relating to inhibition of metastasis of breast cancer, suppressed to ([1]; fraction of baseline): 1/60
expression of RAS suppressor protein gene, suppressed to ([1]; fraction of baseline): 1/43
expression of a gene relating to inhibition of leukemia, suppressed to ([1]; fraction of baseline): 1/43
delay of skin rejection versus control ([2]; intermittent): 5 days
rejection in skin transplantation / skin graft survival ([2]; intermittent): the rejection in the skin transplantation was suppressed and skin graft survival was prolonged
skin rejection occurred, days after the transplantation ([2]; intermittent, 6 mice, control 7 days): 12 days
survival of the transplanted skin of one mouse after the transplantation ([2]; one mouse): 14 days
gene band pattern by PCR before and after peptide treatment (Skin fibroblast cell): a difference in the band patterns was observed
gene band pattern by PCR before and after peptide treatment ([3]; 7-amino acid primer (partial sequence)): a difference in the band patterns was observed
gene band pattern by PCR before and after peptide treatment ([3]; 11-amino acid primer (full sequence)): a difference in a position having a high concentration was observed
post total RNA ([4]; subject eight, healthy subject (smoker), pre 45.875 μg/ml): 0.958 µg/mL
post/pre [4, 6]: 2%
reduction ratio [4, 6]: 98%
post total RNA ([4]; subject five, healthy subject (side-stream smoke), pre 58.076 μg/ml): 19.551 µg/mL
post/pre [4, 7]: 33.6%
reduction ratio [4, 7]: 66.4%
post total RNA ([4]; subject four, cancer patient received chemotherapy and radiotherapy, pre 8.078 μg/ml): 1.757 µg/mL
post/pre [4, 8]: 21.7%
reduction ratio [4, 8]: 78.3%
post total RNA ([4]; subject one, healthy subject (side-stream smoke), pre 69.622 μg/ml): 7.735 µg/mL
post/pre [4, 9]: 11.1%
reduction ratio [4, 9]: 88.9%
post total RNA ([4]; subject seven, healthy subject (smoker), pre 20.779 μg/ml): 9.188 µg/mL
post/pre [4, 10]: 44.2%
reduction ratio [4, 10]: 55.8%
post total RNA ([4]; subject six, healthy subject, pre 52.318 μg/ml): 17.681 µg/mL
post/pre ([4]; subject six, healthy subject): 33.7%
reduction ratio ([4]; subject six, healthy subject): 66.3%
post total RNA ([4]; subject three, healthy subject, pre 61.145 μg/ml): 16.562 µg/mL
post/pre ([4]; subject three, healthy subject): 27%
reduction ratio ([4]; subject three, healthy subject): 73%
post total RNA ([4]; subject two, healthy subject (side-stream smoke), pre 66.804 μg/ml): 14.742 µg/mL
post/pre [4, 11]: 22%
reduction ratio [4, 11]: 78%
gene band pattern by PCR before and after peptide treatment ([5]; 11-amino acid primer (full sequence), peripheral blood sample (H.S.), 7 hr): a difference in the band patterns was observed
gene pattern change by PCR after peptide treatment ([5]; 11-amino acid primer, sample of lanes 2 and 3 of FIG. 2B, healthy young man in twenties): gene mutation was hardly induced
expression status of cancer-related genes (Normal lymphocytes): Cancer-inducing expression status of cancer-related genes was observed
